Data from US20230255976A1, “Novel Compounds for the Treatment, Alleviation or Prevention of Disorders Associated with Tau Aggregates” (AC Immune SA, priority 2018, published 2023).
pEC50: −log10 of the molar value.

Tests used:
[1] = test system: human neuroblastoma cell line overexpressing full-length human Tau carrying the P301L mutation; assay: Reduction of intracellular Tau aggregation (AlphaLISA); format: cell-based; conditions: compound at 5 μM, 24 h; aggregated Tau normalized to total Tau, relative to DMSO-treated cells
Method: A human neuroblastoma cell line overexpressing the full-length form of human Tau carrying the P301 L mutation was cultured in complete medium [DMEM-F12 4.5 g/L Glutamax (Invitrogen), 15% FBS (Biochrom), 1% Peni/Strep (Invitrogen) supplemented with 2.5 μg/ml of G418 (Sigma-Aldrich) selection antibiotic]. The day before the experiment 5×10^5 cells/well were plated in a 6 well plate in 3 mL of complete medium. The next day, cells were incubated with DMSO or a compound of the present invention at 5 μM for additional 24 h at 37° C. […]
Phosphorylated, aggregated, and total Tau were quantified by AlphaLisa using the following antibody pairs: • HT7-Acceptor beads+biotin (BT)-Tau13-Donor beads: Total Tau • HT7-Acceptor beads+biotin (BT)-HT7-Donor beads: Aggregated human Tau […]
After incubation of this mixture at room temperature for 1 h, 25 μL of Streptavidin Donor beads (Perkin Elmer) at 25 μg/mL were added in the dark. Plates were analyzed after 30 min incubation using the EnSpire Alpha instrument and EnSpire Workstation version 3.00. Data for aggregated Tau were normalized to total Tau and then expressed as percentage of the DMSO-treated cells.

[2] = target: T1, Tau K18 fragment aggregates (amino acids 244 to 372 of human Tau441) (Homo sapiens, UniProt P10636); assay: Tau K18 disaggregation assay by ThT; format: biochemical; conditions: 2 μM K18 aggregates, compounds 160 to 0.04 μM, 30 min RT, ThT fluorescence
T1 construct: encompassing amino acids 244 to 372 of the longest isoform (2N4R) of human Tau441; host or cells: bacteria
Method: Compounds were dissolved in anhydrous dimethyl sulfoxide (DMSO, Sigma-Aldrich) to reach a concentration of 10 mM. K18 aggregates and serial dilutions of compounds were mixed together in PBS (volume 50 μL) to a final concentration of 2 μM of K18 aggregates and from 160 to 0.04 μM of compounds. The mixture was incubated for 30 minutes at room temperature (RT), then 40 μL of this mixture were transferred into a black 384-well plate assay (Perkin-Elmer) and mixed with 10 μL of 100 μM ThT in 250 mM glycine (both from Sigma-Aldrich) in PBS. Fluorescence (relative fluorescence units; RFU) was measured in monoplicate or duplicate on a Tecan reader (excitation: 440 nm; emission: 485 nm). Percentage of K18 disaggregation was then calculated and half maximal effective concentration (EC50) was determined using GraphPad Prism version 5 (GraphPad Software) assuming a one-binding site fitting model.

T1 sequence (P10636 561-689): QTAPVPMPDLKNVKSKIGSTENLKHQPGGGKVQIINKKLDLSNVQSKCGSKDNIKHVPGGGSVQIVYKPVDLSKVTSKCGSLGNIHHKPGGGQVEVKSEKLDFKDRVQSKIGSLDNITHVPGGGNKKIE

| SMILES | % Reduction of intracellular Tau aggregation [1] | pEC50 [2] |
| --- | --- | --- |
| c1ccc2c3c([nH]c2c1)CN(c1ccc(N2CCOCC2)nc1)CC3 [Example 44] | +++ (+++ % >50) | – |
| Fc1ccc2[nH]c3c(c2c1)CC1CCC3N1c1ccc(N2CCOCC2)cn1 (centres unmarked) [Example 47] | – | 4.60 to 5.00 |
